Legend:
[1] = molecular target: T1, hen egg-white lysozyme (HEWL) (Gallus gallus, UniProt P00698); assay: UV-Vis absorbance titration (binding constant K), […]; DSC; ESI-MS; conditions: read-out: K (M^-1) ^1
T1 construct: gene LYZ

[2] = molecular target: T1, hen egg-white lysozyme (HEWL); assay: UV-Vis absorbance titration (binding constant K), […]; DSC (no adduct seen in ESI-MS); conditions: read-out: K (M^-1) ^1

T1 sequence (P00698 19-147): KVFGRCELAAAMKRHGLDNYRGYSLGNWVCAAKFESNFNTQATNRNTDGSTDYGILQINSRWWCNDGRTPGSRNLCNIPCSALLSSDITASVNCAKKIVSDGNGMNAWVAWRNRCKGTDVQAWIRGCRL

Row | Structure (SMILES) | Kd [1] [µM] | Kd [2] [µM]
1 | O=S(=O)(O)C(F)(F)F.[Cl][Pt-2]12[n+]3ccccc3-c3cc(-c4ccccc4)cc([n+]31)-c1cccc[n+]12 [compound 1, [PtCl(4′-phenyl-2,2′:6′,2″-terpyridine)](CF3SO3)] | 58.8 | 
2 | O=S(=O)(O)C(F)(F)F.[I][Pt-2]12[n+]3ccccc3-c3cc(-c4ccccc4)cc([n+]31)-c1cccc[n+]12 [compound 2, [PtI(4′-phenyl-2,2′:6′,2″-terpyridine)](CF3SO3)] |  | 83.3
